In patent US20250234862A1, “FUNGICIDAL COMPOSITION FOR PREVENTING AND CONTROLLING ROOT ROT DISEASES IN CROPS CAUSED BY FUSARIUM SPP” (Institute Of Plant Protection And Agro-Products Safety, …, priority 2024, published 2025):

Experiments:
[1] = system: Fusarium solani; assay: Indoor toxicity determination, mycelial growth assay on PDA medium; type: cell-based; conditions: mycelial growth inhibition, 25° C., soybean Fusarium solani
Procedure: (§1) A detailed analysis of the fungicidal properties of cyclobutrifluram and ipconazole was conducted. First, the EC50 ([…]) of the two single compounds (hereinafter referred to as agents) was determined. According to the EC50 of the two single agents, the combination ratio of the two agents was set according to the Wadley method, and based on the Wadley synergistic coefficient SR value.
(§2) The experimental targets were Fusarium pseudogramineaqum and Fusarium solani. The cyclobutrifluram and ipconazole were selected, and the PDA solid medium were selected, and the required liquid chemicals plates were prepared at about 18 ml per plate. The mycelium blocks with 5 mm diameter were prepared at the edge of pre cultured colonies using a sterilized punch, transferred to different culture media plates, and cultivated at 25° C. The experiment used the mycelial growth assay method to prepare drug containing culture media according to different treatments. The mycelium blocks with 5 mm diameter were prepared at the edge of pre cultured colonies using a sterilized punch and transferred to different culture media plates with different drug contents. The colony diameter was measured using the cross over method, and the colony diameter (mm) was measured. The growth inhibition rate was calculated using the following formula: […]
(§3) The mycelial growth inhibition rate was converted to the inhibition probability value (y), and the drug concentration was converted to the concentration logarithm (x). The concentration logarithm was used as the x-axis and the probability value was used as the y-axis to create a toxicity regression line. The toxicity regression equation of a single agent of cyclobutrifluram and ipconazole and a mixed agent of cyclobutrifluram and ipconazole against the pathogen were obtained, and the EC50 value and correlation coefficient r were calculated.
(§4) According to the Wadley method to evaluate the interaction of the mixed agent, the calculation formula is as follows: […]
(§5) Among them, a and b are the proportions of each component in the mixed agent, and the SR value is used to analyze the mixing effect. If SR≤0.5, the mixed agent of the two drugs has an antagonistic effect; if SR=0.5-1.5, the mixed agent of the two drugs has an additive effect; if SR≥1.5, the mixed agent of the two drugs has a synergistic effect.

[2] = system: Fusarium pseudogramineaqum; assay: as above; type: cell-based; conditions: mycelial growth inhibition, 25° C., wheat Fusarium pseudogramineaqum
Procedure: as §1, §2, §3, §4, §5

[3] = system: wheat stem base rot disease; assay: Field control experiment on wheat stem base rot disease (seed coating); type: in vivo, wheat variety Quanmai 725
Procedure: Experiments employed 20% cyclobutrifluram·ipconazole suspension seed coating agent in example 1 of formulation implementation and 45% cyclobutrifluram suspension seed coating agent, 20% ipconazole suspension seed coating agent, and 15% carbendazim·thiram suspension seed coating agent. Experimental site was located at Liu Lake Farm in Suixi County using the wheat variety “Quanmai 725”. The agent was applied to seeds at a 1:1000 ratio by weight for seed coating. Additionally, the agent was diluted into a solution, with a final volume of 1 liter of solution used to treat 100 kg of wheat seeds, which were then dried in the shade before direct planting. Disease investigations were conducted during the tillering stage and after the growth of wheat entered the jointing-booting stage (Table 3).

Structure (SMILES) | EC50 [1] [ppm] | EC50 [2] [ppm] | control effect on wheat stem base rot disease (in words) [3]
O=C(NC1CCC1c1ccc(Cl)cc1Cl)c1cccnc1C(F)(F)F (stereo not drawn) [Cyclobutrifluram] | 0.3774 | 0.3033 | significant control effect
CC(C)C1CCC(Cc2ccc(Cl)cc2)C1(O)Cn1cncn1 (stereo not drawn) [Ipconazole, (1RS,2SR,5RS;1RS,2SR,5SR)-2-(4-chlorobenzyl)-5-isopropyl-1-(1H-1,2,4-triazol-1-ylmethyl)cyclopentanol] | 0.1808 | 0.1506 | significant control effect
